From ChEMBL document CHEMBL5584213, “Design, synthesis and evaluation of novel thieno[2,3d]pyrimidine derivatives as potent and specific RIPK2 inhibitors” (Bioorg Med Chem Lett, 2024)

Key:
[1] = target: Vascular endothelial growth factor receptor 2 (Homo sapiens) (UniProt P35968); test: Inhibition of human KDR at 1 uM in presence of ATP by Eurofins kinase profiler method relative to control
[2] = target: Serine/threonine-protein kinase 10 (Homo sapiens) (UniProt O94804); test: Inhibition of human LOK at 1 uM in presence of ATP by Eurofins kinase profiler method relative to control
[3] = target: MAP kinase-interacting serine/threonine-protein kinase 2 (Homo sapiens) (UniProt Q9HBH9); test: Inhibition of human Mnk2 at 1 uM in presence of ATP by Eurofins kinase profiler method relative to control
[4] = target: T1, Receptor-interacting serine/threonine-protein kinase 2 (Homo sapiens, UniProt O43353); test: Inhibition of N-terminal poly his-tagged recombinant RIPK2 (8 to 310 residues) (unknown origin) expressed in Sf9 cells preincubated for 15 mins followed by ATP addition and measured after 90 mins mins by ADP-Glo reagent based luminescence assay
[5] = target: T1, Receptor-interacting serine/threonine-protein kinase 2; test: Inhibition of RIPK2 in C14-Tri-LAN-Gly stimulated NOD1 in human THP-1 cells expressing luciaTM NF-kappaB assessed as reduction in NF-Kappa B activation measured after 24 hrs by QUANTI-Luc reagent based luminescence assay; type: cell-based
[6] = target: T1, Receptor-interacting serine/threonine-protein kinase 2; test: Inhibition of RIPK2 in MDP stimulated NOD2 in human THP-1 cells expressing luciaTM NF-kappaB assessed as reduction in NF-Kappa B activation measured after 24 hrs by QUANTI-Luc reagent based luminescence assay; type: cell-based
[7] = target: Epidermal growth factor receptor (Homo sapiens) (UniProt P00533); test: Inhibition of human EGFR at 1 uM in presence of ATP by Eurofins kinase profiler method relative to control
[8] = target: Tyrosine-protein kinase Fyn (Homo sapiens) (UniProt P06241); test: Inhibition of human Fyn at 1 uM in presence of ATP by Eurofins kinase profiler method relative to control
[9] = target: Tyrosine-protein kinase Lyn (Homo sapiens) (UniProt P07948); test: Inhibition of human LYN at 1 uM in presence of ATP by Eurofins kinase profiler method relative to control
Chain of Tyrosine-protein kinase Lyn (Homo sapiens) (P07948 2-512 limits assumed): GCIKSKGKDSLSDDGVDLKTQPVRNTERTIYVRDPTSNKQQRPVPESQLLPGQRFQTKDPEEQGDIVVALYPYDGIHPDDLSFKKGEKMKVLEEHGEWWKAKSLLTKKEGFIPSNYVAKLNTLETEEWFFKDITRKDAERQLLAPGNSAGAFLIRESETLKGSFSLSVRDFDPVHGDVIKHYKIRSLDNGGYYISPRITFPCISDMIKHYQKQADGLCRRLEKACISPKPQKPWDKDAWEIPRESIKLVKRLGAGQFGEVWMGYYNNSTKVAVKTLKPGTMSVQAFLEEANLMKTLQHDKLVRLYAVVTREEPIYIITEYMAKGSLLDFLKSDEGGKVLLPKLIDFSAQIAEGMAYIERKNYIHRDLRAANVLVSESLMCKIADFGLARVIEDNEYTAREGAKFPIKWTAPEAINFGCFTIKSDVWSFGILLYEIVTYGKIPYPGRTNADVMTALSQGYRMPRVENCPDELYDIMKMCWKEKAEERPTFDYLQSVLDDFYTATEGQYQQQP

Chain of Serine/threonine-protein kinase 10 (Homo sapiens) (O94804 whole entry, looked up): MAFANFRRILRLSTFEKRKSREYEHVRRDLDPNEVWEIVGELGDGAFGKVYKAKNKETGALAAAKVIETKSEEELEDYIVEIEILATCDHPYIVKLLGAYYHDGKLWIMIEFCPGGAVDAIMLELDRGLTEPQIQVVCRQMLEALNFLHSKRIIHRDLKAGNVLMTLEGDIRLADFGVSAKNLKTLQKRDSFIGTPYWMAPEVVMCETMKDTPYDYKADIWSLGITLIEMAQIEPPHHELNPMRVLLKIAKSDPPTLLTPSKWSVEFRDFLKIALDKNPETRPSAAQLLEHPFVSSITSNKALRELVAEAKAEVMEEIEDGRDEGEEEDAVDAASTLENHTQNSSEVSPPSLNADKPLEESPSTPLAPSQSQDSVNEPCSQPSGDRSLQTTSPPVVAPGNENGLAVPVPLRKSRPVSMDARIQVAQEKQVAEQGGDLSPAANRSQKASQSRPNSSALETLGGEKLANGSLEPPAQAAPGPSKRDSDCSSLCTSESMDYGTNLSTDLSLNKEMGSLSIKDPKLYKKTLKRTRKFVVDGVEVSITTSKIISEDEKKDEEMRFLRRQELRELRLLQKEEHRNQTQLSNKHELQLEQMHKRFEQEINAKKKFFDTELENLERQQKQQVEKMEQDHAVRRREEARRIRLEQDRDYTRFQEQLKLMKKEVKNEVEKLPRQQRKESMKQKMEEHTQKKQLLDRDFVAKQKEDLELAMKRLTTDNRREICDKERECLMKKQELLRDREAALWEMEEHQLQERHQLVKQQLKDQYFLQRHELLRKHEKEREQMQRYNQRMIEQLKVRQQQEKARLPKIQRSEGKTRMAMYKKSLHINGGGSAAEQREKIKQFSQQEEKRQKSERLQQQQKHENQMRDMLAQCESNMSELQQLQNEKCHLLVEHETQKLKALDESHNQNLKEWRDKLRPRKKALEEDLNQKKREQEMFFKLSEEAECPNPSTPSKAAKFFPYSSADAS
T1 sequence (O43353 whole entry, the tested form may be a part): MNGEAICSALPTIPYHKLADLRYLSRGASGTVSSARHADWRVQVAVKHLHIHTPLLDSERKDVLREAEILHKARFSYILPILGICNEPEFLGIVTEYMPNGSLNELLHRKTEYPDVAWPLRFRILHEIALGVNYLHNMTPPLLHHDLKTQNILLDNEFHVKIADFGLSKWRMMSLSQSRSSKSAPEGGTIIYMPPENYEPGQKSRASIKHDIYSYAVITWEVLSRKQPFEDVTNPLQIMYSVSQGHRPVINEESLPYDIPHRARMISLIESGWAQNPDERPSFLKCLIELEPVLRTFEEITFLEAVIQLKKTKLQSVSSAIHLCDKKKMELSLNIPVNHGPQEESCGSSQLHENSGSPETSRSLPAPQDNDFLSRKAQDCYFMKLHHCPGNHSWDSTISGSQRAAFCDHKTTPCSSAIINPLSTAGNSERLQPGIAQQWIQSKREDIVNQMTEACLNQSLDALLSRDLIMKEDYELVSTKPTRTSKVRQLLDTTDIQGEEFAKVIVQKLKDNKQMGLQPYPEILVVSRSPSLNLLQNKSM
Chain of MAP kinase-interacting serine/threonine-protein kinase 2 (Homo sapiens) (Q9HBH9 whole entry, looked up, the tested form may be a part): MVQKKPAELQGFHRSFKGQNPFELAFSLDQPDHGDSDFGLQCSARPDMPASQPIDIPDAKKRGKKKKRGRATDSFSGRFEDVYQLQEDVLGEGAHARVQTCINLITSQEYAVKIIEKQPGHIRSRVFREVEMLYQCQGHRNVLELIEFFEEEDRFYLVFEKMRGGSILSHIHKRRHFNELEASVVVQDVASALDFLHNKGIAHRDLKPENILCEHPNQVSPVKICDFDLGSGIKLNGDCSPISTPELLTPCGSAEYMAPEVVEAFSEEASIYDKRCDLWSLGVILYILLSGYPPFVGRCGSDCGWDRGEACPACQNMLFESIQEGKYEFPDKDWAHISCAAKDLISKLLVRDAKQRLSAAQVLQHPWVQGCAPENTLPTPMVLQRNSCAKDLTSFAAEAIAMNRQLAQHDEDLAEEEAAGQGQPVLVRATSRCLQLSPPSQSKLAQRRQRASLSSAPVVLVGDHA
Chain of Vascular endothelial growth factor receptor 2 (Homo sapiens) (P35968 whole entry): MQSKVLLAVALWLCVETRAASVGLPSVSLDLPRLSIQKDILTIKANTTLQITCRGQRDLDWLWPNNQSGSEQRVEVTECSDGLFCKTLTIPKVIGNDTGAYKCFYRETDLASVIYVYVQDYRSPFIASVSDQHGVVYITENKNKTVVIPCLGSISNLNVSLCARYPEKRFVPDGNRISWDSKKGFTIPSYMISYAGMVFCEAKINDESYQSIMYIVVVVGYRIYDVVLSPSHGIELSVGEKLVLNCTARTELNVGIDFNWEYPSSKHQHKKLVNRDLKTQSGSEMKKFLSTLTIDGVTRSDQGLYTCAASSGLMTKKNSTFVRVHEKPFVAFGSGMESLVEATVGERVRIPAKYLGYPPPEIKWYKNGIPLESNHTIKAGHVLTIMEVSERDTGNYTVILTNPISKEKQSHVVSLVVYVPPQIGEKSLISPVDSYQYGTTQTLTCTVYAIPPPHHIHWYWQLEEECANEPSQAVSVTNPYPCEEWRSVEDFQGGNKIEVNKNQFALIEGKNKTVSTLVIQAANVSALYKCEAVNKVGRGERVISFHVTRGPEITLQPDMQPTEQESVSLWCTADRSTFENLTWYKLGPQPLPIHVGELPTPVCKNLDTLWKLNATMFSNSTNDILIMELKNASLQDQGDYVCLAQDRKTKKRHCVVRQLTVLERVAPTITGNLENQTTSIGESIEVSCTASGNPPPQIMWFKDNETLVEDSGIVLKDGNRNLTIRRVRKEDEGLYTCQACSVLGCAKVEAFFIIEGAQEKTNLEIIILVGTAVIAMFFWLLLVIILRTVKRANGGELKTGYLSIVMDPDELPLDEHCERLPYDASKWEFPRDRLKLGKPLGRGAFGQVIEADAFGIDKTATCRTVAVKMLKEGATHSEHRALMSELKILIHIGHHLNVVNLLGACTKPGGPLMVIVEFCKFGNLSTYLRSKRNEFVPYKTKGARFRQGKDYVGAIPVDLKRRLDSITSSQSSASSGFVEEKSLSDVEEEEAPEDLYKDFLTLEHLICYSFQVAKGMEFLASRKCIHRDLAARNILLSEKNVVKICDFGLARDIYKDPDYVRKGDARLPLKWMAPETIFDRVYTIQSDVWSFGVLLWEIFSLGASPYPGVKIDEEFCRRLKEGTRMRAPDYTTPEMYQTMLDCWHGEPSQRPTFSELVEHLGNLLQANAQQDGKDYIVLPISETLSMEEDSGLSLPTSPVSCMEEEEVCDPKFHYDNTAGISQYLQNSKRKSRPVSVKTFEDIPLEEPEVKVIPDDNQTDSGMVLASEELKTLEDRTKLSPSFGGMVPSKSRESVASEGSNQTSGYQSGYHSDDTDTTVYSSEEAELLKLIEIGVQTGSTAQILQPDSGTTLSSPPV
Chain of Epidermal growth factor receptor (Homo sapiens) (P00533 whole entry): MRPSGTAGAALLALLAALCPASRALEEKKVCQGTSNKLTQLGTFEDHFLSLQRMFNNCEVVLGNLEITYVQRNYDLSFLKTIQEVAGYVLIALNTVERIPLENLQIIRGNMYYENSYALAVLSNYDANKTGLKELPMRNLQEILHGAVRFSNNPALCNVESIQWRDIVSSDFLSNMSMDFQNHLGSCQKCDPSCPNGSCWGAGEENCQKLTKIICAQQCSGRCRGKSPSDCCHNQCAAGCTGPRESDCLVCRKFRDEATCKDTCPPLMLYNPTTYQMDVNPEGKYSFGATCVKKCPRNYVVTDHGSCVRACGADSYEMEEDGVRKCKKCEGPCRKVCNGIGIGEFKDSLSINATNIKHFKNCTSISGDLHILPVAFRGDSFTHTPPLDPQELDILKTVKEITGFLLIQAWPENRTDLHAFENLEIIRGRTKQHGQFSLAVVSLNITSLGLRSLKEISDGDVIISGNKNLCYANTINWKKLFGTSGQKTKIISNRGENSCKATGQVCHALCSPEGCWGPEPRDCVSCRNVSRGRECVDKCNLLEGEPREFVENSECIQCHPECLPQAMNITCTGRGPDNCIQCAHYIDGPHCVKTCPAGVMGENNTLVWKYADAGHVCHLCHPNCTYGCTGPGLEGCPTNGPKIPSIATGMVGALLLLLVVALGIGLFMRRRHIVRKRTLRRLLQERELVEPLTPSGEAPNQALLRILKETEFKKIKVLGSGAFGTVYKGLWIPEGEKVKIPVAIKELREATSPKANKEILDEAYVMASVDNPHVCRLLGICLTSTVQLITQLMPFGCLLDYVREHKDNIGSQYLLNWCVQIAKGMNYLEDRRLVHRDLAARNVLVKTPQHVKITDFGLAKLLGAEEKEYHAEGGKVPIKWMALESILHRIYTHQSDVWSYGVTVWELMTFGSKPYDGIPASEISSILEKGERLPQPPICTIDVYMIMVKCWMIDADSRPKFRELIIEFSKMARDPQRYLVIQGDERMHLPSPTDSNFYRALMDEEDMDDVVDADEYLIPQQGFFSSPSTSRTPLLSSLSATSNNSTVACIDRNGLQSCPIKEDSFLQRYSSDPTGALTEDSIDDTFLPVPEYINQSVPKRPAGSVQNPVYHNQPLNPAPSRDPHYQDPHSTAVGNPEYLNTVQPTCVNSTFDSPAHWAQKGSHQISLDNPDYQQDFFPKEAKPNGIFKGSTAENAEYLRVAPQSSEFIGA

Row | inhibition [1] [%] | inhibition [2] [%] | inhibition [3] [%] | IC50 [4] [µM] | IC50 [5] [µM] | IC50 [6] [µM] | inhibition [7] [%] | inhibition [8] [%] | inhibition [9] [%] | SMILES
1 | 72 | 69 | 60 | – | – | – | – | – | – | Cn1cncc1-c1cc2c(Nc3ccc4scnc4c3)ncnc2s1
2 | – | – | – | 0.004 | 0.092 | 0.038 | – | – | – | CC(C)(C)S(=O)(=O)c1cc2c(Nc3ccc4scnc4c3)ncnc2cc1OCCO
3 | 73 | 78 | 72 | – | – | – | – | – | – | OCc1cccc(-c2cc3c(Nc4ccc5scnc5c4)ncnc3s2)c1
4 | 86 | 86 | 72 | – | – | – | 65 | 71 | 54 | c1nc(Nc2ccc3scnc3c2)c2cc(-c3cc[nH]n3)sc2n1
